In paper PMC5565203 (Journal of medicinal chemistry, 2015):
Entries after “also recorded” stand apart in the source; their conditions may differ.

How the values were obtained:
human Mcl-1 = human Mcl-1 (Homo sapiens, UniProt Q07820); assay: FPA competition assay, displacement of FITC-Bak-BH3 peptide from Mcl-1; type: binding; details: for improvement in Mcl-1 affinity compared to the core fragment 3: compared to fragment 3; for LE (ligand efficiency): binding to Mcl-1; for increased affinity for Mcl-1 compared to the initial fragment 2: four-atom linker compounds; for higher Mcl-1 Ki values compared to the corresponding four-atom linker analogs: three-atom linker compounds
cellular Mcl-1 = cellular Mcl-1 (Homo sapiens, UniProt Q07820); assay: Biotin streptavidin pull-down experiment in K562 cell lysates; type: binding; details: Western blot
Sequence of cellular Mcl-1 (Q07820 whole entry): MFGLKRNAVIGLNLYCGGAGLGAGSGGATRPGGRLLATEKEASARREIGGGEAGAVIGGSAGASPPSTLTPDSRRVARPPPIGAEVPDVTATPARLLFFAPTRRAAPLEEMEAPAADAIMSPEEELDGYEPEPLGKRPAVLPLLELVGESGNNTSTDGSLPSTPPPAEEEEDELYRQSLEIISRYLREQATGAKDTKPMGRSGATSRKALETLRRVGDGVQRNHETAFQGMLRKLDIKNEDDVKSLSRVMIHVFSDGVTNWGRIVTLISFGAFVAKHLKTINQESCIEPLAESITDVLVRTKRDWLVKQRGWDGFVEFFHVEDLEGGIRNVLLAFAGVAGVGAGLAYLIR

Sequence of human Mcl-1 (Q07820 172-327): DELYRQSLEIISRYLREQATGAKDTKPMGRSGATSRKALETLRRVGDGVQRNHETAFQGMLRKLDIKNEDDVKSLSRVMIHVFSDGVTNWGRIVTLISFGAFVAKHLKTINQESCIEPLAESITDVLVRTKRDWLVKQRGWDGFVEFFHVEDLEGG

Cc1cc(OCCCc2c(C(=O)O)n3c4c(cccc24)SCC3)ccc1Cl [Compound 29, 6-(3-(4-Chloro-3-methylphenoxy)propyl)-2,3-dihydro-[1,4]thiazino[2,3,4-hi]indole-5-carboxylic acid]
improvement in Mcl-1 affinity compared to the core fragment 3 (human Mcl-1): 240 fold

O=C(O)c1cc2cccc3c2n1CCC3 [Compound 4]
LE (ligand efficiency) (human Mcl-1): 0.35

O=C(O)c1c(CCCOc2cccc3ccccc23)c2cccc3c2n1CCS3 [Compound 19, 6-(3-(Naphthalen-1-yloxy)propyl)-2,3-dihydro-[1,4]thiazino[2,3,4-hi]indole-5-carboxylic acid]
increased affinity for Mcl-1 compared to the initial fragment 2 (human Mcl-1): more than 2 orders of magnitude

Cc1cc(OCCCc2c(C(=O)O)n3c4c(c(Cl)ccc24)CCC3)cc(C)c1Cl [Compound 34, 7-chloro-1-(3-(4-chloro-3,5-dimethylphenoxy)propyl)-5,6-dihydro-4H-pyrrolo[3,2,1-ij]quinoline-2-carboxylic acid]
inhibition of biotin-MS-1 pulldown of cellular Mcl-1 (cellular Mcl-1): blocks the interaction with biotin MS-1 in a dose-dependent manner; also recorded: inhibits binding of biotin-MS-1 to Mcl-1 in cell lysates

Cc1c(C(=O)O)n2c3c(cccc13)CCC2 [Compound 6, 1-Methyl-5,6-dihydro-4H-pyrrolo[3,2,1-ij]quinoline-2-carboxylic acid]
LE (ligand efficiency) (human Mcl-1): 0.35

O=C(O)c1c(CCOc2cccc3ccccc23)c2cccc3c2n1CCS3 [Compound 16, 6-(2-(Naphthalen-1-yloxy)ethyl)-2,3-dihydro-[1,4]thiazino[2,3,4-hi]indole-5-carboxylic acid]
higher Mcl-1 Ki values compared to the corresponding four-atom linker analogs (human Mcl-1): > 10 fold

O=C(O)c1c(CCCOc2ccc3c(c2)CCCC3)c2cccc3c2n1CCS3 [Compound 28, 6-(3-((5,6,7,8-Tetrahydronaphthalen-2-yl)oxy)propyl)-2,3-dihydro-[1,4]thiazino[2,3,4-hi]indole-5-carboxylic acid]
reduction in affinity to Mcl-1 (human Mcl-1; compared to regioisomer 26 and 1-naphthyl analog 19): 3 fold

O=C(O)c1c(CCOc2cccc3ccccc23)c2cccc3c2n1CCO3 [Compound 18, 6-(2-(Naphthalen-1-yloxy)ethyl)-2,3-dihydro-[1,4]oxazino[2,3,4-hi]indole-5-carboxylic acid]
higher Mcl-1 Ki values compared to the corresponding four-atom linker analogs (human Mcl-1): > 10 fold

O=C(O)c1c(CCCOc2cccc3ccccc23)c2cccc3c2n1CCC3 [Compound 20, 1-(3-(Naphthalen-1-yloxy)propyl)-5,6-dihydro-4H-pyrrolo[3,2,1-ij]quinoline-2-carboxylic acid]
increased affinity for Mcl-1 compared to the initial fragment 2 (human Mcl-1): more than 2 orders of magnitude

Cc1cc(OCCCc2c(C(=O)O)n3c4c(cccc24)SCC3)cc(C)c1Cl [Compound 30, 6-(3-(4-chloro-3,5-dimethylphenoxy)propyl)-2,3-dihydro-[1,4]thiazino[2,3,4-hi]indole-5-carboxylic acid]
improvement in Mcl-1 affinity compared to the core fragment 3 (human Mcl-1): 720 fold

Cc1c(C(=O)O)n2c3c(cccc13)SCC2 [Compound 5, 6-Methyl-2,3-dihydro-[1,4]thiazino[2,3,4-hi]indole-5-carboxylic acid]
LE (ligand efficiency) (human Mcl-1): 0.41

Cc1c(C(=O)O)n2c3c(cccc13)OCC2 [Compound 7, 6-Methyl-2,3-dihydro-[1,4]oxazino[2,3,4-hi]indole-5-carboxylic acid]
LE (ligand efficiency) (human Mcl-1): 0.41

O=C(O)c1c(CCCOc2cccc3ccccc23)c2cccc3c2n1CCO3 [Compound 21, 6-(3-(Naphthalen-1-yloxy)propyl)-2,3-dihydro-[1,4]oxazino[2,3,4-hi]indole-5-carboxylic acid]
increased affinity for Mcl-1 compared to the initial fragment 2 (human Mcl-1): more than 2 orders of magnitude

CC1Cn2c(C(=O)O)cc3cccc(c32)S1 (stereo not shown) [Compound 2]
LE (ligand efficiency) (human Mcl-1): 0.38

O=C(O)c1c(CCOc2cccc3ccccc23)c2cccc3c2n1CCC3 [Compound 17, 1-(2-(Naphthalen-1-yloxy)ethyl)-5,6-dihydro-4H-pyrrolo[3,2,1-ij]quinoline-2-carboxylic acid]
higher Mcl-1 Ki values compared to the corresponding four-atom linker analogs (human Mcl-1): > 10 fold

O=C(O)c1cc2cccc3c2n1CCS3 [Compound 3]
LE (ligand efficiency) (human Mcl-1): 0.39
